Structures can show the parent of a compound that is named as a salt.

The values below come from US7829114B2, “Capsules containing aqueous fill compositions stabilized with derivatized cyclodextrin” (CyDex Pharmaceuticals, Inc., priority 2002, dated 2010).

Data set [1] in a line: Clarity / appearance of fill composition. The note with it: normal dose of drug in 1 gram. It counts as physicochemical. The text has this: (§1) Agitation continued until all the SAE-CD dissolved.
Clarity of the fill compositions herein can be determined by visual inspection; however, other known methods for determining the clarity of a fill composition can be performed. Exemplary other methods include transmittance spectrophotometry at a wavelength of 800 nm.

Data set [2] in a line: Shell stability toward aqueous fill composition, statements on soft gelatin capsules. It counts as physicochemical. Conditions: for stability provided to capsules: about ≧60% wt.
Data set [3] is described as follows: Water activity measurement. It counts as physicochemical. Conditions: for Water Activity (approximate values): about 20-25° C. As for the experimental part: Without being held bound to a particular mechanism, it is believed that the increasing the concentration of derivatized cyclodextrin present in the aqueous fill composition results in reduced water activity for the fill composition. The table below provides a summary of water activity versus concentration of cyclodextrin derivatives or some shell-stabilizing materials in water at about 20-25° C., or ambient temperature.
The values detailed above are approximate and can vary from instrument to instrument. These values were determined according to the procedure described herein on a water activity meter described herein. The numbers can also vary within the standard deviation of a particular instrument. It is also possible for the numbers to vary according to the accuracy and reproducibility of the instrument used as well as the method for calibrating the instrument with solution standards of known water activity.
Water activity was measured by placing a sample solution in a small, sealed container and determining the equilibrium humidity and temperature in the container. Instruments such as the HygroLab 3 from Rotronic Instrument Corp. , Huntington, N.Y. were used to measure the water activity. The humidity is determined using a thin film capacitive sensor in the headspace of the container. The temperature is determined using a Pt RTD 100 sensor. From these measurements the activity of water (Aw) is calculated by the instrument. The instrument has an accuracy of about ±0.015 Aw and a repeatability of about ±0.005 Aw. Carefully prepared salt-containing stock solutions of known concentration and water activity were used to calibrate the instrument prior to use.

The nature of data set [4]: Shell stability on exposure to aqueous fill composition (half-shell integrity test, H.S.I.T.). Conditions: LFB. How it is done:
A study was conducted to determine whether or not complexation of a drug to the SAE-CD alters the ability of the SAE-CD to stabilize the capsule shell against dissolution, erosion, swelling or degradation caused by water in the fill composition enclosed within the capsule shell. Banner's hydrophilic, HFB, and lipophilic, LFB, air fill size 35 oval gelatin capsules were used in this study, which was performed as described below. […] The SAE-CD was slowly added to the water while it was stirring and on a hot plate. Agitation continued until all the SAE-CD dissolved. The SAE-CD was divided by weighing in equal amounts into nine vials (one for each drug). […] The amount of drug added produced a composition that contained a normal dose of drug in 1 gram. The vials were agitated and heated until a solution was obtained or the active was uniformly suspended. […]
Method A: Half-Shell integrity Test (H.S.I.T.)
In a closed container, a portion of a capsule shell is exposed to an aqueous fill composition comprising a known amount of derivatized cyclodextrin, water and optionally one or more other excipients. Observation of changes, or lack thereof, on the exposed portion's size, appearance, shape, dissolution, erosion, degradation, hardness, and/or translucence are recorded periodically over time. A rating scale is used to quantify the overall performance of the capsule portion during the test.

Assay in data set [5]: as above
It counts as physicochemical. Conditions: HFC. As for the experimental part: (§2) The same tests were performed on gelatin capsules obtained from CARDINAL HEALTH.
It has been discovered that PEG has a beneficial effect upon the shell-stabilizing property of an aqueous fill composition comprising SAE-CD. FIG. 6a depicts a ternary graph correlating the concentration of SAE-CD, water and PEG in a fill composition to the H.S.I.T. rating of a soft shell capsule exposed to the fill composition. Aqueous fill solutions comprising differing amounts of PEG, SAE-CD and water were prepared. The stability tests were conducted as described below. The HFC soft gelatin capsules described herein were used. For a composition comprising 40% wt. SBE-CD, 40% wt. water and 20% wt. PEG, the shell was stable for greater than 5 days. For a composition comprising 35% wt. SBE-CD, 35% wt. water and 30% wt. PEG, the shell was stable for greater than 5 days. For a composition comprising 18% wt. SBE-CD, 42% wt. water and 40% wt. PEG, the shell was stable for greater than 5 days. Under each of the conditions tested, the control sample excluded SAE-CD, i.e., containing only water and PEG at the indicated concentration, and failed within 24 hours. About the same results were obtained for the HFB (FIG. 6b), LFB (FIG. 7a) and LFC (FIG. 7b) soft gelatin capsules. Increasing the SAE-CD concentration to values higher than those indicated further increases the shelf-life of the shell or provides an HSIT rating of at least 4. Stabilized aqueous fill composition-containing capsule formulations can be achieved with each capsule if the following fill compositions are used.

Assay in data set [6]: as above
Conditions: LFC. The class given is physicochemical. How it is done:
as §2

Assay in data set [7]: as above
The class given is physicochemical. Conditions: HFB.
Source text: as §1

Where [8] appears, read: 40% wt. cyclodextrin derivative in water.
[9] abbreviates: 50% wt. cyclodextrin derivative in water.
[10] abbreviates: 60% wt. cyclodextrin derivative in water.
[11] abbreviates: 70% wt. cyclodextrin derivative in water.

For `COc1ccccc1OCCNCC(O)COc1cccc2[nH]c3ccccc3c12` (centres unmarked) [Carvedilol], the Fill composition appearance result in data set [1] (60% w/w SAE-CD) is on record as “solution”; in data set [1] (70% w/w SAE-CD) it was “clear solution”.

Take `C(=C\c1ccccc1)/CN1CCN(C(c2ccccc2)c2ccccc2)CC1` [Cinnarizine]: the Fill composition appearance result in data set [1] (60% w/w SAE-CD) and in data set [1] (70% w/w SAE-CD) was “suspension” throughout.

For `CC(C)(C(=O)O)c1ccc(C(O)CCCN2CCC(C(O)(c3ccccc3)c3ccccc3)CC2)cc1` (centres unmarked) [Fexofenadine HCl], the Fill composition appearance result in data set [1] (60% w/w SAE-CD) is “solution”; in data set [1] (70% w/w SAE-CD), “clear solution”.

As for `C[C@]12CCC(=O)C=C1CC[C@@H]1[C@@H]2[C@@H](O)C[C@@]2(C)[C@H]1CC[C@]2(O)C(=O)CO` [Hydrocortisone], the Fill composition appearance entry in data set [1] (60% w/w SAE-CD) and in data set [1] (70% w/w SAE-CD) was “clear solution” each time.

Turning to `COc1ccc2c(c1)c(CC(=O)O)c(C)n2C(=O)c1ccc(Cl)cc1` [Indomethacin], the Fill composition appearance result in data set [1] (60% w/w SAE-CD) is “solution”; in data set [1] (70% w/w SAE-CD), “clear solution”.

Turning to `C[C@]12CCC(=O)C=C1CC[C@@H]1[C@@H]2CC[C@@]2(C)[C@H]1CC[C@]2(C)O` [Methyltestosterone], the Fill composition appearance result in data set [1] (60% w/w SAE-CD) and in data set [1] (70% w/w SAE-CD) was “clear solution” in each case.

For `CN[C@H]1CC[C@@H](c2ccc(Cl)c(Cl)c2)c2ccccc21` [Sertraline HCl], the figures for the Fill composition appearance result in data set [1] (60% w/w SAE-CD) and in data set [1] (70% w/w SAE-CD) were “solution” and “clear solution”, respectively.

Turning to `C[C@]12CC[C@H]3[C@@H](CCC4=CC(=O)CC[C@@]43C)[C@@H]1CC[C@@H]2O` [Testosterone], the Fill composition appearance result in data set [1] (60% w/w SAE-CD) and in data set [1] (70% w/w SAE-CD) was “clear solution” throughout.

Consider “Dimethylcyclodextrin [DMCD, reference compound]”, for which the “effect on stability of the shell” value in data set [2] (about 42% wt., maximum achievable concentration, FIG. 2) was “only slightly increased the stability of the shell”. Also, the “ability to stabilize soft gelatin capsules from water in the fill composition” value in data set [2] (at saturation concentration in water, FIG. 4) is “unable to stabilize”. For the same compound, the water activity result in data set [3] (43% wt. in water, the approximate saturation concentration) was “approximately 0.996”.

As for hydroxypropyl cyclodextrin [HP-CD], the “Increase in shell size” value in data set [4] (setting [8]) is on record as >3 × × original; in data set [4] (setting [9]) it was 2 × × original; in data set [4] (setting [10]), 2 × × original; in data set [4] (setting [11]), 1.5 × × original; in data set [5] (setting [8]), >3 × × original; in data set [5] (setting [9]), 2 × × original. For the same compound, the “Increase in shell size” value in data set [5] (setting [10]) is 2 × × original; in data set [5] (setting [11]), 1.5 × × original; in data set [6] (setting [8]), >3 × × original; in data set [6] (setting [9]), 2 × × original; in data set [6] (setting [10]), 2 × × original; in data set [6] (setting [11]), 1.5 × × original. The “Increase in shell size” value was >3 × × original in data set [7] (setting [8]), 2 × × original in data set [7] (setting [9]), 2 × × original in data set [7] (setting [10]) and 1.5 × × original in data set [7] (setting [11]). Also, the Observations entry in data set [4] (setting [8]) is recorded as “Deformed”; in data set [4] (setting [9]), “shape intact”; in data set [4] (setting [10]), “Shape intact”; in data set [4] (setting [11]), “Shape intact”; in data set [5] (setting [8]), “Deformed”; in data set [5] (setting [9]) it was “shape intact”. For the same compound, the Observations entry is on record as “Slight deformity” in data set [5] (setting [10]); “Shape intact” in data set [5] (setting [11]); “Deformed” in data set [6] (setting [8]); “Shape intact” in data set [6] (setting [9]); “Slight deformity” in data set [6] (setting [10]); “Shape intact” in data set [6] (setting [11]). The Observations entry in data set [7] (setting [8]) is “Deformed”; in data set [7] (setting [9]), “shape intact”; in data set [7] (setting [10]), “Shape intact”; in data set [7] (setting [11]), “Shape intact”. For the same compound, the Time for failure in data set [4] (setting [8]) stood at 2 days; in data set [4] (setting [9]) it was 4 days; in data set [4] (setting [10]) it was 7 days; in data set [4] (setting [11]), 14 days; in data set [5] (setting [8]), 2 days; in data set [5] (setting [9]), 4 days. Moreover, the Time for failure turned out to be 7 days in data set [5] (setting [10]); 14 days in data set [5] (setting [11]); 2 days in data set [6] (setting [8]); 4 days in data set [6] (setting [9]); 7 days in data set [6] (setting [10]); 14 days in data set [6] (setting [11]). Also, the Time for failure in data set [7] (setting [8]) is reported as 2 days; in data set [7] (setting [9]), 4 days; in data set [7] (setting [10]), 7 days; in data set [7] (setting [11]), 14 days. In addition, in data set [2] (60% wt. or more based upon total weight of water and HP-CD), the “shelf-life of soft gelatin capsules” value is “at least one week”. In addition, the “stability provided to capsules” value in data set [2] (LFB and LFC soft gelatin capsules as printed, FIG. 2) is given as “at least one week stability”; in data set [2] (LFB and LFC soft gelatin capsules, FIG. 1), “at least a one-week stability”. Besides, the “Water Activity (approximate values)” value in data set [3] (10 % w/w in water) is on record as ~0.99; in data set [3] (20 % w/w in water), ~0.99; in data set [3] (30 % w/w in water) it was ~0.98; in data set [3] (40 % w/w in water), ~0.98; in data set [3] (50 % w/w in water), ~0.97; in data set [3] (60 % w/w in water) it was ~0.94. In addition, the “Water Activity (approximate values)” value in data set [3] (70 % w/w in water) is ~0.93.
